In patent US10232043B2, “Photoactivated molecules for light-induced modulation of the activity of electrically excitable cells and methods of using the same” (UNIVERSITY OF SOUTHERN CALIFORNIA, priority 2015, dated 2019):
“Also recorded” adds a separate entry of the source.

System: mouse adrenal chromaffin cells
Assay: Perforated patch clamp, light-triggered action potentials
Type: cell-based
Description: Action potentials in chromaffin cells were monitored using perforated patch clamp electrophysiology in current-clamp mode, using an EPC10 amplifier and Pulsemaster data acquisition software (HEKA electronics). A coverslip containing mouse chromaffin cells was transferred to a recording chamber and perfused with extracellular solution. Extracellular solution consists of 140 mM NaCl, 2.8 mM KCl, 10 mM HEPES, 1 mM MgCl2, 2 mM CaCl2, 10 mM glucose, pH adjusted to 7.3, and osmolarity adjusted to 290-300 mOsm. Intracellular solution consisted of 145 mM KCl, 10 mM NaCl, 1 mM MgCl2, and 10 mM HEPES, pH adjusted to 7.3 and osmolarity adjusted to 290-300 mOsm. Perforation solution was prepared by adding 4.5 μl of 125 mg/ml stock of amphoterecin B (Sigma) in DMSO to 1.8 mls of intracellular solution, and homogenizing for 540 s. Perforation was achieved within 3-10 min following gigaseal formation. Series resistances were in the range of 8-22 Mohm. Light stimulation in the blue spectrum originated from a xenon lamp source with an irradiance value of 0.480 mE s^−1 m^−2 through a 470/40 nm bandpass excitation filter. The duration of illumination varied and is indicated by bars on figures.
The behavior of excitable cells (cells capable of firing action potentials) treated with RubpyC17 was next investigated. Perforated patch clamp recording was performed on, mouse adrenal chromaffin cells pretreated with 450-900 nM RubpyC17 for 15-30 minutes before beginning electrophysiological recordings.

Compound: CCCCCCCCCCCCCCCCCc1ccnc(-c2cc(C)ccn2)c1.F[P-](F)(F)(F)(F)F.F[P-](F)(F)(F)(F)F.[Ru+2].c1ccc(-c2ccccn2)nc1.c1ccc(-c2ccccn2)nc1 [RubpyC17, [Ru(bpy)2(bpy-C17)](PF6)2]
- light effect on action potential firing (900 nM RubpyC17 pretreatment, 5 mM ascorbate): triggered action potentials or increased the rate of action potential firing
- action potential firing rate of a single cell (2 μM for 1.5 min, ascorbate changed for ferricyanide): light-induced increase and then light-induced decrease
- reversal of firing effect after light illumination terminated (chromaffin cells): slow, gradual reversal; also recorded: slowly reversed
- shape of action potential waveforms under light (chromaffin cells): no change in the shape of action potential waveforms
- light effect on rate of action potential firing (ferricyanide 100 μM): decreased the rate of action potential firing
- effect of increasing ferricyanide on action potential firing (ferricyanide from 100 to 200 μM): further suppressed action potential firing
